According to patent US20030104975A1, “Cofactor-based screening method for nuclear receptor modulators and related modulators” (priority 2001, published 2003):

How the values were obtained:
[1] = target: T1, PPARγ DE / p300Nt-GST (Homo sapiens, UniProt P37231); assay: GST pull-down assay, PPARγ DE with p300Nt-GST; assay type: binding; details: anti-histidine blot, rosiglitazone 10^-4 M, FMOC-L-Leu 10^-3 M, compared to DMSO
T1 construct: made in house; host or cells: E. coli BL21 (DE3) for PPARgamma, pET15b; E. coli for the GST fusion, pGex4-T1
T1 sequence (Q09472 2-516 partner limits assumed, one chain of several): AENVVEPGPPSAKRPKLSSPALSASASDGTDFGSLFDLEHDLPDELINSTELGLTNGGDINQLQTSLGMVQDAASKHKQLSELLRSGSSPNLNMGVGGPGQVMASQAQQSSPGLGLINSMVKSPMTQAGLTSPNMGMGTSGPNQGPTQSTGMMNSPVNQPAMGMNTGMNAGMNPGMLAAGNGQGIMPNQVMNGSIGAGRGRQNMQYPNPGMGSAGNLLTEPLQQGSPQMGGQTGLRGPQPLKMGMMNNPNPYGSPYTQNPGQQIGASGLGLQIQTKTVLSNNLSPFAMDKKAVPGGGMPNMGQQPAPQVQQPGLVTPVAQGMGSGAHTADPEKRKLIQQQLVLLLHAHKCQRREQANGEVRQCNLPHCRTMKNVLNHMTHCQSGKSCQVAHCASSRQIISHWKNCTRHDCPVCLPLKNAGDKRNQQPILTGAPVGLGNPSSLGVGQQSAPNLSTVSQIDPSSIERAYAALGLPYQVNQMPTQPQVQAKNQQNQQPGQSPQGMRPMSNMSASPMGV
Description: (§1) The beads were then washed and the samples separated on SDS-PAGE. Blots were developed with anti-histidine antibodies.
(§2) Production of proteins. The p300Nt-GST, SRC-1-GST and TIF2-GST fusion proteins were generated by cloning the N-terminal part of the cDNA coding for the p300 protein (amino acids 2 to 516), the region comprised between amino acids 568 and 780 of SRC-1 (SEQ ID NO: 03), and the domain between amino acids 618 and 826 of TIF2 (SEQ ID NO: 01), respectively, downstream of the glutathione-S-transferase (GST) protein in the pGex4-T1 vector (Pharmacia, Orsay, France). The fusion proteins were then expressed in E. coli and purified on a glutathione affinity matrix (Pharmacia). 6×-histidine-tagged human PPAR-gamma LBD (residues 203-477 of SEQ ID NO: 06) was overproduced in E. coli BL21 (DE3) using the pET15b as an expression plasmid (Novagen, Madison, Wis.) and purified by metal ion affinity chromatography on a Co^2+-loaded HiTrap Chelating column (Pharmacia Biotech, Peapack, N.J.) followed by gel filtration chromatography on a HiLoad Supcrdex 100 column (Pharmacia). The protein concentration was determined by the Bradford method (1976, Anal Biochem 72, 248-254).
(§3) Pull-down experiments. […] The beads were then washed 4 times with pull-down buffer and boiled in 4×-sample buffer. The samples were separated by 12% acrylamide SDS-PAGE and transferred to nitrocellulose membranes.

[2] = target: T2, PPARγ DE/SRC-1-GST complexes (Homo sapiens, UniProt P37231); details: GST pull-down, anti-histidine blot; rosiglitazone 10^-4 M, FMOC-L-Leu 10^-3 M; compared to DMSO
T2 sequence (P37231 203-477 isoform P37231-2): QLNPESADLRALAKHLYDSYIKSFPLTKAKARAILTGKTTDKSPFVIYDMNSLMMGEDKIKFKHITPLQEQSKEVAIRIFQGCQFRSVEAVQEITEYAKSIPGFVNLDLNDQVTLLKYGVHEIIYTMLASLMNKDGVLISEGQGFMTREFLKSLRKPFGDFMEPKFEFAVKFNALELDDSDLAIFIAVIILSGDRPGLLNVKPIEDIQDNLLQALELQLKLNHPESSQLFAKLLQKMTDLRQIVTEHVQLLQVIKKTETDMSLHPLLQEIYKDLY
Description: as §1, §2, §3

[3] = tested on: 3T3-L1 cells; assay: 3T3-L1 adipocyte differentiation assay; assay type: cell-based, murine; details: FMOC-L-Leu 10^-5 M
Experimental: A: Expression of adipocyte markers during differentiation of 3T3-L1 cells treated with different PPAR-gamma agonists. Confluent 3T3-L1 cells were incubated with 2 μM insulin, 1 μM dexamethasone, and 0.25 mM isobuthyl methyl xanthine for two days. […] RNA was isolated from 3T3-L1 cells after different times of differentiation induction. Blots were hybridized with DNA probes that specifically bind to 36B4 (to control for RNA loading), lipoprotein lipase (LPL), or aP2.
Cells were stained with Oil Red O after 6 days of treatment.
3T3-L1 cells (ATCC, Rockville, Md.) were grown to confluence in medium A (Dulbecco's modified Eagle's Medium with 10% fetal calf serum, 100 units/ml penicillin, and 100 μg/ml streptomycin). Confluent cell were incubated in medium A containing 2 μM insulin, 1 μM dexamethasone, and 0.25 mM isobuthyl methyl xanthine for two days. Then, the cells were incubated in medium A in presence or absence of PPARγ agonist for 4 days, changing the medium every 2 days. Adipogenesis was evaluated by analysis of the expression of adipocyte-specific markers and by staining of lipids with Oil Red O (Chawla & Lazar, 1994, Proc. Natl. Acad. Sci. USA 91, 1786-1790).
RNA was isolated from 3T3-L1 cells by the acid guanidinium thiocyanate/phenol/chloroform method (Chomczynski & Sacchi, 1987, Anal. Biochem. 162, 156-159). Northern blot analysis of total cellular RNA was performed as described (Auwerx et al., 1989, Mol. Cell. Biol. 9, 2298-2302). Lipoprotein lipase (LPL), aP2 and 36B4 were used as probes (Lefebvre et al., 1997, Arterioscler.Thromb.Vasc.Biol. 17, 1756-1764; Laborda, 1991, Nucl. Acids Res. 19, 3998; Graves et al., 1992, Mol. Cell. Biol 12, 1202-1208).

[4] = target: T3, BDGal4-hPPARγ DE / TIF2 (Homo sapiens, UniProt P37231); assay: Mammalian two-hybrid assay in RK13 cells, Gal4-hPPARγ DE with TIF2; assay type: cell-based; details: 24 h, FMOC-L-Leu 10^-5M, rosiglitazone 10^-7M
T3 construct: expressed in transfected cells; host or cells: RK13 cells (ATCC)
T3 sequence (P37231 238-503 limits assumed): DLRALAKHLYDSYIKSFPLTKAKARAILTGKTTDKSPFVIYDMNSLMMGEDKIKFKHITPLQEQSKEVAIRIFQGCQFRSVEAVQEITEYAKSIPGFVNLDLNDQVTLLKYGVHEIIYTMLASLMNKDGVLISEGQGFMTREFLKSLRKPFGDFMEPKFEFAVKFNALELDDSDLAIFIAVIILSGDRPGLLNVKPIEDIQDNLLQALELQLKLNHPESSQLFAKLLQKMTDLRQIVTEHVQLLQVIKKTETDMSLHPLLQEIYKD
Experimental: (§4) FIG. 2: Interactions between PPAR-gamma and cofactors in cultured mammalian cells. Mammalian two-hybrid interaction between PPAR-gamma and the various co-activators in RK13 cells co-transfected with an expression vector for BDGal4-hPPARγ DE, pGL3-(Gal4)5TKLuc reporter construct, pCMV-βGal, as a control of transfection efficiency, and different expression vectors for different cofactors. Cells were grown during 24 h in the presence or absence of the indicated compound. Luciferase activity has been normalized. […] Each point was performed in triplicate. Bars not sharing similar superscripts are statistically different from each other (P<0.05, Fisher's Post-hoc analysis of 2×2 ANOVA with ligands and constructs as factors).
(§5) RK-13 cells were obtained from ATCC (Rockville, Md.). Cells were maintained in Dulbecco's modified Eagle's minimal essential medium (DMEM) supplemented with 10% fetal calf serum (FCS), L-glutamine, and antibiotics. Transfection studies with luciferase (luc.) reporter constructs were carried out as described previously (Oberfield et al., 1999, Proc Natl. Acad Sci USA 96, 6102-6106). The pGL3-(Gal4)5TKLuc reporter constructs are described elsewhere (Gelman et al., 1999, J. Biol. Chem. 274, 7681-7688). […]

[5] = target: T4, BDGal4-hPPARγ DE / p300 (Homo sapiens, UniProt P37231); assay: Mammalian two-hybrid assay in RK13 cells, Gal4-hPPARγ DE with p300; assay type: cell-based; details: 24 h, FMOC-L-Leu 10^-5M
T4 construct: expressed in transfected cells; host or cells: RK13 cells (ATCC)
T4 sequence (P37231 238-503 limits assumed): T3 sequence (P37231 238-503 limits assumed)
Experimental: as §4, §5

[6] = target: T5, BDGal4-hPPARγ DE / SRC-1 (Homo sapiens, UniProt P37231); assay: Mammalian two-hybrid assay in RK13 cells, Gal4-hPPARγ DE with SRC-1; assay type: cell-based; details: 24 h, FMOC-L-Leu 10^-5M
T5 construct: expressed in transfected cells; host or cells: RK13 cells (ATCC)
T5 sequence (Q15788 whole entry partner, one chain of several, the tested form may be a part): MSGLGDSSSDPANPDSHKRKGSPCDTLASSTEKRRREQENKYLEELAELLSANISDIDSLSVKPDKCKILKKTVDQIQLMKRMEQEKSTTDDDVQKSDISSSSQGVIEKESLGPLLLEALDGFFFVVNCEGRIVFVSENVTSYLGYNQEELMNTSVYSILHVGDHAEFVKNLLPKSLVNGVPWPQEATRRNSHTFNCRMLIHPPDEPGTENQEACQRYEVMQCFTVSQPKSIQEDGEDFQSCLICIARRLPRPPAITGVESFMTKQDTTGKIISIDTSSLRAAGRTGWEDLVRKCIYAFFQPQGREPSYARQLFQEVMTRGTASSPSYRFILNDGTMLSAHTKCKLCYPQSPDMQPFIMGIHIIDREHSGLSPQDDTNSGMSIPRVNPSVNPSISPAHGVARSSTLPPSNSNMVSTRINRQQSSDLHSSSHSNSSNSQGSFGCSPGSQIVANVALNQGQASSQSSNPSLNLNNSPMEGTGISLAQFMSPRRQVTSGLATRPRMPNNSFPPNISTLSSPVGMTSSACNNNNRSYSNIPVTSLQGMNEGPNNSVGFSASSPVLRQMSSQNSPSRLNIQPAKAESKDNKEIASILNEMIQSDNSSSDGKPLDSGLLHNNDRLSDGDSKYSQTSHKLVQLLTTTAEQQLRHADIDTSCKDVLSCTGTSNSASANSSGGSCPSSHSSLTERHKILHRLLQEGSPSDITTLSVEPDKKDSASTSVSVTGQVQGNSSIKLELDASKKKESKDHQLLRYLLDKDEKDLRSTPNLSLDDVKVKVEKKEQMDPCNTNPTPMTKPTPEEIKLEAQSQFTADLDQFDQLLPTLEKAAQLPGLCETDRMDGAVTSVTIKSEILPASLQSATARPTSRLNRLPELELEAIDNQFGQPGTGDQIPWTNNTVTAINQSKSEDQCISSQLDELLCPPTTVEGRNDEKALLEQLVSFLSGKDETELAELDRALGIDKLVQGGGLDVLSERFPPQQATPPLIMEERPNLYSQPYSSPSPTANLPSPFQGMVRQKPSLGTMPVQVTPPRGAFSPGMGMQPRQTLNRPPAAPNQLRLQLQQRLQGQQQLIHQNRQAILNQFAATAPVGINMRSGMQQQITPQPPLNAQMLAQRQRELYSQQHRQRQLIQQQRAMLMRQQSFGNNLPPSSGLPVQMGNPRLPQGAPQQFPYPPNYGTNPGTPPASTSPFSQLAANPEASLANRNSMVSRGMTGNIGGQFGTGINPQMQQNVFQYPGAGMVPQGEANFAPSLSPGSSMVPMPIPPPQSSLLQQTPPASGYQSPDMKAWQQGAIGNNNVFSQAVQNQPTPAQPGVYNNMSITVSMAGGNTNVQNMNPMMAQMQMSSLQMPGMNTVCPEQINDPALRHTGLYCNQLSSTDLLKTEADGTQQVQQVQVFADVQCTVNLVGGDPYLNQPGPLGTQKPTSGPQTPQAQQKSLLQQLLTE
Experimental: as §4, §5

[7] = target: T6, PPARγ DE / TIF2-GST (Homo sapiens, UniProt P37231); assay: GST pull-down assay, PPARγ DE with TIF2-GST; assay type: binding; details: anti-histidine blot, rosiglitazone 10^-4 M, FMOC-L-Leu 10^-3 M, compared to DMSO
T6 construct: made in house; host or cells: E. coli BL21 (DE3) for PPARgamma, pET15b; E. coli for the GST fusion, pGex4-T1
T6 sequence (P37231 203-477 isoform P37231-2): T2 sequence (P37231 203-477 isoform P37231-2)
Description: as §1, §2, §3

[8] = Northern blot, extent close to rosiglitazone 10^-7 M

interaction between the PPARγ DE and p300Nt-GST [1]: increased the interaction
formation of PPARγ DE/SRC-1-GST complexes [2]: induced the formation
interaction between TIF2 and the PPARγ DE [7]: not with FMOC-L-Leu
Structure (SMILES): CC(C)C[C@H](NC(=O)OCC1c2ccccc2-c2ccccc21)C(=O)O [FMOC-L-Leu, FMOC-L-leucine]
neutral lipid accumulation (Oil Red O staining) ([3]; 6 day incubation, rosiglitazone 10^-7 M): capable of inducing neutral lipid accumulation
LPL mRNA levels [3, 8]: significantly stimulated
aP2 mRNA levels [3, 8]: significantly stimulated
transactivation (luciferase) in the presence of TIF2 [4]: no significant increase in transactivation
transactivation (luciferase) in the presence of p300 [5]: no significant increase in transactivation
transactivation (luciferase) in the presence of SRC-1 [6]: much more pronounced and significant induction
